# Experimental data as given in doi:10.1101/2024.12.09.627564, “Cannabinoid inhibition of mechanosensitive K^+ channels” (bioRxiv, 2024).
# Read-outs that look alike come from different tables or passages of the source.
# How the values were obtained:
# Homo sapiens TRAAK = biological target: T1, Homo sapiens TRAAK (Homo sapiens, UniProt Q9NYG8); test: Excised inside-out patch recording of TRAAK from Xenopus oocytes; type: biochemical
# T1 construct: The transcribed messages encode H. sapiens TRAAK amino acids 1–393; expressed in transfected cells; host or cells: Xenopus laevis oocytes, cRNA injection
# T1 sequence (Q9NYG8 1-393): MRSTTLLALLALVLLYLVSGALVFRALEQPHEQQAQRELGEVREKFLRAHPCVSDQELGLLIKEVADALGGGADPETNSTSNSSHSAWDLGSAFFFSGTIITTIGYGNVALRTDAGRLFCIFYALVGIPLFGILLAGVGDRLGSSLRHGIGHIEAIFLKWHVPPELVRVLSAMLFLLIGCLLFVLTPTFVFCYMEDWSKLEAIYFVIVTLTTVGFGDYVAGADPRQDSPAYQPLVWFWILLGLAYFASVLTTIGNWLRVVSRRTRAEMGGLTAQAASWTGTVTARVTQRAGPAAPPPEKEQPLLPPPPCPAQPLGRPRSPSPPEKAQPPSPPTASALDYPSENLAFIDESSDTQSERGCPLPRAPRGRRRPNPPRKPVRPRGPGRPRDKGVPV
# Source text: For patch clamp recording from Xenopus oocytes, genes encoding full-length Homo sapiens TRAAK (UniProt Q9NYG8–2), TREK-1 (UniProt O95069), and TREK-2 (UniProt P57789) were codon optimized for eukaryotic expression, synthesized (Genewiz), and cloned into a modified pGEMHE vector using Xho1 and EcoR1 restriction sites. The transcribed messages encode H. sapiens TRAAK amino acids 1–393, TREK-1 amino acids 1–426, or TREK-2 amino acids 1–538 with an additional three amino acids (SNS) at the C terminus. TRAAK mutants were introduced by polymerase chain reaction (PCR). Linearized DNA was transcribed in vitro using T7 polymerase. Complementary RNA (0.1 to 10 ng for TRAAK, TREK-1, TREK-2, and mutants) in 50 nL H2O was injected into Xenopus laevis oocytes extracted from anesthetized frogs. Currents were recorded at 25 °C from inside-out patches excised from oocytes 1 to 5 d after RNA injection. The pipette solution contained 15 mM KCl, 135 mM NaCl, 2 mM MgCl2, and 10 mM HEPES (pH = 7.4 with KOH) and the bath solution contained 150 mM KCl and 10 mM HEPES (pH = 7.1 with KOH). Borosilicate glass pipettes were pulled to 2–5 MΩ resistance.
# Patches were evaluated with voltage-step protocols to confirm TRAAK expression and minimal non-specific leak based on reversal potential. Currents were recorded using an Axopatch 200B amplifier (Molecular Devices) at a bandwidth of 1 kHz and digitized with an Digidata 1550B (Molecular Devices) at 100–500 kHz using pClamp10.7 software. Pressure was applied with a second-generation high-speed pressure clamp device (HSPC-2-SB, ALA Scientific Instruments). Aggregated data were from patches from n ≥ 2 different cells on different days. No relevant differences were observed between patches from different cells. In an effort to minimize variability associated with differences in resting membrane tension, we targeted patches with low basal curvature and low resting channel activity and ensured measured pressure difference across the patch was as close to zero as possible at rest to prevent mechanical activation of channels. Data were analyzed using Clampfit 10.7, Excel, and Graphpad Prism software. For voltage families, the data were decimated 100x and plotted in Prism. Statistical analysis was conducted with Dunnett’s multiple comparisons test after an ordinary one-way ANOVA using Prism software.
# To avoid cannabinoid absorption to plastic, cannabinoid solutions were made in glass vials and diluted by weight, perfusion was performed using glass tubing pulled from borosilicate glass Pasteur pipettes (Fisherbrand, Cat# 13–678-20C), and recordings were performed in glass chambers. Channel activity was continuously recorded during perfusion steps. Patches were exposed to each cannabinoid concentration until a stable current level was reached (0.5–2 minutes). CBD (Cayman Chemical cat#90080) was prepared as a 10mM stock solution in DMSO, CBN (Cayman Chemical cat#25495) was prepared as a 80mM stock solution in DMSO, CBDV (Phytolab Cat#85955) was prepared as a 10mM stock solution in DMSO, and CBDP (Cayman Chemical cat#33611) was purchased as a 2.9 mM stock solution in methanol. Cannabinoids were serially diluted in bath solution to achieve working concentrations of 50 μM to 10 nM. Bath volume in the recording chamber was minimized by suction and drug-containing solutions were delivered three times to ensure establishment of desired concentration in the recording chamber. Cannabinoids were applied from low to high concentration. The recording chamber and perfusion system were washed extensively with methanol after every trial.
# The effects of cannabinoids on channel activity were quantified by the reduction in channel current evoked at 0 mV during a gap-free recording or during 200 ms long voltage families with steps ranging from −100 to +100 mV. Currents were normalized to those prior to cannabinoid application to facilitate comparisons across different patches and cells. […]
# CB2 = tested on: CB2; parameters: method as in PMID 27398024; conditions: partial agonism of CB2; cited from earlier work
# CB1 = tested on: CB1; parameters: method as in PMID 27398024; conditions: partial agonism of CB1; cited from earlier work
# [1] = TRAAK inhibition, relative to CBD
smiles,measurement,setting,value
"C=C(C)[C@@H]1CCC(C)=CC1c1c(O)cc(CCCCCCC)cc1O (stereo partly drawn) [CBDP, Cannabidiphorol]",fold more potent than CBD,Homo sapiens TRAAK; [1],~ 10 fold
same,IC50,"Homo sapiens TRAAK; wild-type TRAAK, excised patch, current at 0 mV, all glass components, read-out: IC50",0.017 ± 0.003 µM
"C=C(C)[C@@H]1CCC(C)=C[C@H]1c1c(O)cc(CCC)cc1O [CBDV, cannabidivarin]",inhibition of TRAAK channels at high concentration,Homo sapiens TRAAK; 20 μM,fully inhibits
same,fold less potent than CBD,Homo sapiens TRAAK; [1],~ 40 fold
same,IC50,"Homo sapiens TRAAK; wild-type TRAAK, excised patch, current at 0 mV, read-out: IC50",5.58 ± 0.34 µM
"CCCCCc1cc(O)c2c(c1)OC(C)(C)c1ccc(C)cc1-2 [CBN, Cannabinol]",IC50,Homo sapiens TRAAK,0.107 µM
same,more potent than CBD,Homo sapiens TRAAK; [1],~ 33%
